Source: patent publication US10183015B2, “Heterocyclic compounds and methods of use” (Medivation Technologies LLC, priority 2015, dated 2019)
Several values for one entry are separate records, joined by “and”; a condition that tells them apart may be missing. Equal entries are not always repeated.

What was measured:
Type in all cases: in vivo
[1] = test system: diet-induced NASH obese insulin resistant mice; assay: DIN mouse model: liver weight and liver lipid levels; set-up: liver weight: unit not given here; conditions: 20 mg/kg
Method: (§1) Male C57Bl/6J mice (8 weeks old) were housed in enriched ventilated cages (31×12.5×12.7 cm) throughout the experimental phase. Animals' cages litters were changed at least once a week. Animal were housed 5 per cage on inverted 12-hour light cycle (at 09:00 am lights off), 22±2° C. and 55±10% relative humidity. The acclimation period was 20 days. During the acclimation period, all mice were fed a standard diet (RM1 (E) 801492, SDS) and tap water ad libitum. After the acclimation period, mice were fed with the DIN diet (60% fat, cholesterol enriched) and fructose-enriched tap water ad libitum until the end of the experiment.
(§2) At 6 weeks of diet, mice were 4-hour fasted (09:00 am to 1:00 pm) and blood (150 μl/EDTA) was collected at 01:00 pm by retro-orbital bleeding under isoflurane anesthesia. Mice were then allocated in 2 homogenous groups (n=12/group) according to their plasma levels of ALT (average levels: 685U/L), AST (average levels: 627U/L) and HOMA-IR index (average value: 4.7), into 2 homogenous groups (see values at day 0 in Tables 15A and 15B ALT/AST and Tables 16A and 16B for HOMA-IR). Mice were then treated once daily by oral gavage with vehicle (Group 1) or Compound #37 at 20 mg/kg (Group 2) for 70 days.
To investigate whether Compound #37 improves pre-existing steatosis/NASH pathology, a study was conducted using a 16-week diet-induced NASH mouse model. In this model, mice develop steatosis that progresses with inflammation and fibrosis that mimic many of the observed pathologies in human nonalcoholic fatty liver disease (NAFLD) and NASH (Hebbard & George, 2010). For 6 weeks, mice were fed a high-fat, high-cholesterol diet and provided drinking water containing fructose to induce liver pathology (Charlton et al, 2011). After 6 weeks, the mice were divided into 2 groups with similar mean aspartate aminotransferase (AST) and alanine aminotransferase (ALT) values (n=12 mice), although it should be noted that AST and ALT concentrations within both groups were higher and with greater variability than anticipated (e.g., mean ALT 677 U/L [SD, 401 U/L] in the vehicle control group and 693 U/L [SD, 365 U/L] in the Compound #37 group). After the animals were divided into 2 groups, the diet was continued for 10 additional weeks during which time 1 group received vehicle and the other was treated with 20 mg/kg/day Compound #37.

[2] = test system: MCP-1; assay: Short-term Paigen-diet NASH mouse model: hepatic MCP-1 gene expression (RT-qPCR); set-up: key to MCP-1 gene expression: 2DDct: expression relative to vehicle group, normalized to 18S (2^-ΔΔCt); key to MCP-1 gene expression: DDct: ΔCt (vs 18S) relative to vehicle group; conditions: 21 days
Method: To investigate whether Compound #37 prevents the development of pathology associated with NASH and steatosis in an acute exploratory disease model, a study was conducted using a diet-induced acute liver steatosis model in mice. As described below, in this study, C57BL/6J mice were initiated on the Paigen diet and simultaneously treated with Compound #37 (5, 20, and 40 mg/kg/day) or vehicle control (20% HPβCD 10 mL/kg/day) by oral gavage for 21 days.
After acclimation, 8-week old male C57Bl/6J mice (Charles River) weighing about 25 g were randomized in 4 groups according their body weight and treated once daily around noon by oral gavage with vehicle, or Compound #37 at various for 21 days as follows: Group 1: vehicle-20% (2-hydroxypropyl)-β-cyclodextrin (HP-β-CD) (n=10); Group 2: Compound #37, 5 mg/kg ([…]) Group 4: Compound #37, 40 mg/kg (n=10). During the treatment period, body weight and food intake (measured over 24h) were measured 3 times per week and once a week, respectively. During the acclimation, all mice were fed a standard diet (Special Diets Services RM1 (E), product no. 801492) and tap water ad libitum. After the acclimation period, mice were fed until the end of the experiment with a 60% high fat Paigen diet (60 kcal % fat, 1.25% cholesterol, and 0.5% cholate; D11061901, Research Diet) and tap water ad libitum.
(§3) Gene expression analysis. Hepatic expression levels of genes involved in lipid metabolism (FAS, SREBP1, ACC1, SCD1), cholesterol metabolism (HMG-CoAR, LDLR), SREBP proteolysis (SCAP, INSIG1), ER stress (PERK), oxidative stress (NRF2), inflammation (MCP-1), and fibrosis (collagen 1α1) were quantified by RTqPCR. Expression level was normalized to 18S gene expression and relative expression to vehicle group was calculated with the […] method.

[3] = test system: PERK; assay: DIN mouse model: hepatic PERK gene expression; conditions: liver, 20 mg/kg group
Method: as §3, §1, §2
(§4) Hepatic expression levels of genes involved in lipid (FAS, SREBP1, ACC1, SCD1), cholesterol metabolism (HMG-CoAR, LDLR), in SREBP proteolysis (SCAP, INSIG1), in ER stress (PERK), oxidative stress (NRF2), and inflammation (MCP-1) were not changed. However, expression of collagen 1α1, involved in liver fibrosis, was reduced by 66% in mice treated with Compound #37 (p<0.05 vs. vehicle).

[4] = test system: ACC1; assay: DIN mouse model: hepatic ACC1 gene expression; set-up: key to 2^DDct: expression relative to vehicle group, normalized to 18S; conditions: for 2^DDct / ACC1 / DDct / Dct: Gene Expression: ACC1, 20 mg/kg group; for 18S: Gene Expression: ACC1 table, 18S reference, 20 mg/kg group
Method: as §3, §1, §2, §4

[5] = test system: MCP-1; assay: DIN mouse model: hepatic MCP-1 levels; conditions: 20 mg/kg; for MCP1: hepatic
Method: as §1, §2

[6] = individual animals, vs vehicle mean, 20 mg/kg

CC(C)Cc1cc(-c2nc(-c3ccc(NS(=O)(=O)C(F)(F)F)cc3Cl)cs2)ccn1 [Compound 37, N-(3-chloro-4-(2-(2-isobutylpyridin-4-yl)thiazol-4-yl)phenyl)-1,1,1-trifluoromethanesulfonamide]
Liver weight increase ([1]; 70 days): 21% | Hepatic total cholesterol levels increase ([1]; 70 days, p<0.05 vs. vehicle): 17% | liver cholesterol ([1]; group mean, n 11): 28.2 µg/mg | liver fatty acids ([1]; group mean, n 11): 63.2 nmol/mg | liver triglycerides ([1]; group mean, n 11): 133.8 µg/mg | liver weight ([1]; group mean, n 11): 2.56 | liver cholesterol ([1]; individual animals): 27.4 µg/mg and 32.2 µg/mg and 25.8 µg/mg and 28.4 µg/mg and 28.3 µg/mg and 27.1 µg/mg and 29.9 µg/mg and 20.7 µg/mg and 31.3 µg/mg and 34.0 µg/mg and 25.3 µg/mg | liver fatty acids ([1]; individual animals): 72.2 nmol/mg and 67.2 nmol/mg and 56.2 nmol/mg and 82.8 nmol/mg and 56.8 nmol/mg and 47.8 nmol/mg and 68.4 nmol/mg and 43.9 nmol/mg and 70.0 nmol/mg and 76.7 nmol/mg and 53.2 nmol/mg | liver triglycerides ([1]; individual animals): 262.5 µg/mg and 203.3 µg/mg and 72.2 µg/mg and 162.3 µg/mg and 101.9 µg/mg and 53.6 µg/mg and 178.1 µg/mg and 48.9 µg/mg and 91.5 µg/mg and 195 µg/mg and 102.6 µg/mg | liver weight ([1]; individual animals): 3.24 and 2.72 and 1.97 (2×) and 2.74 and 2.39 and 2.54 and 2.44 and 2.67 and 3.05 and 2.40 | MCP-1 gene expression: 2DDct ([2]; 5 mg/kg, group mean, n 10): 0.74 | MCP-1 gene expression: DDct ([2]; 5 mg/kg, group mean, n 10): 0.62 | MCP-1 gene expression: Dct ([2]; 5 mg/kg, group mean, n 10): 13.9 | MCP-1 gene expression: MCP-1 ([2]; 5 mg/kg, group mean, n 10): 26.2 | MCP-1 gene expression: 2DDct ([2]; 5 mg/kg, individual animals): 1.08 and 0.98 and 0.28 and 1.4 and 0.5 and 0.46 and 0.85 and 1.04 and 0.48 and 0.33 | MCP-1 gene expression: DDct ([2]; 5 mg/kg, individual animals): −0.11 and 0.03 and 1.82 and −0.49 and 0.99 and 1.11 and 0.24 and −0.06 and 1.07 and 1.59 | MCP-1 gene expression: Dct ([2]; 5 mg/kg, individual animals): 13.2 and 13.36 and 15.15 and 12.84 and 14.32 and 14.44 and 13.57 and 13.27 and 14.4 and 14.92 | MCP-1 gene expression: MCP-1 ([2]; 5 mg/kg, individual animals): 26.68 and 26.47 and 26.76 and 26.19 and 26.35 and 27.79 and 25.17 and 25.06 and 25.54 and 26.04 | MCP-1 gene expression: 2DDct ([2]; 20 mg/kg, group mean, n 6): 2.15 | MCP-1 gene expression: DDct ([2]; 20 mg/kg, group mean, n 6): −0.5 | MCP-1 gene expression: Dct ([2]; 20 mg/kg, group mean, n 6): 12.8 | MCP-1 gene expression: MCP-1 ([2]; 20 mg/kg, group mean, n 6): 25 | MCP-1 gene expression: 2DDct ([2]; 20 mg/kg, individual animals): 1.27 and 2.99 and 4.08 and 3.73 and 0.54 and 0.26 | MCP-1 gene expression: DDct ([2]; 20 mg/kg, individual animals): −0.35 and −1.58 and −2.03 and −1.9 and 0.88 and 1.95 | MCP-1 gene expression: Dct ([2]; 20 mg/kg, individual animals): 12.98 and 11.75 and 11.3 and 11.43 and 14.21 and 15.28 | MCP-1 gene expression: MCP-1 ([2]; 20 mg/kg, individual animals): 25.89 and 24.04 and 23.5 and 24.46 and 25.7 and 26.54 | PERK Dct ([3]; individual animals, normalised to 18S, 20 mg/kg): 14.23 and 14.41 and 16.11 and 14.89 and 14.95 and 14.18 and 14.85 and 14.3 and 15.75 and 16.07 and 12.9 | PERK 2^DDct [3, 6]: 1.2 and 1.06 and 0.33 and 0.76 and 0.73 and 1.24 and 0.78 and 1.15 and 0.42 and 0.34 and 3.02 | PERK DDct [3, 6]: −0.27 and −0.09 and 1.61 and 0.39 and 0.45 and −0.32 and 0.35 and −0.2 and 1.25 and 1.57 and −1.6 | PERK (Ct) ([3]; individual animals, 20 mg/kg): 26.78 and 26.96 and 28.95 and 27.32 and 27.3 and 26.77 and 26.58 and 26.81 and 27.25 and 27.62 and 25.25 | PERK 2^DDct ([3]; mean, n 11): 1.00 | PERK (Ct) ([3]; mean, n 11): 27.1 | PERK DDct ([3]; mean, n 11): 0.29 | PERK Dct ([3]; mean, n 11): 14.8 | 2^DDct ([4]; individual animal): 1.62 and 1.20 and 0.21 and 1.19 and 0.20 and 1.29 and 0.79 and 0.67 and 0.34 and 0.23 and 1.77 | ACC1 ([4]; individual animal): 27.74 and 28.17 and 31 and 28.06 and 30.55 and 28.11 and 27.95 and 28.97 and 28.95 and 29.55 and 27.41 | DDct ([4]; individual animal): −0.69 and −0.26 and 2.28 and −0.25 and 2.32 and −0.36 and 0.34 and 0.58 and 1.57 and 2.12 and −0.82 | Dct ([4]; individual animal): 15.19 and 15.62 and 18.16 and 15.63 and 18.2 and 15.52 and 16.22 and 16.46 and 17.45 and 18 and 15.06 | 2^DDct ([4]; mean, n 11): 0.86 | ACC1 ([4]; mean, n 11): 28.8 | DDct ([4]; mean, n 11): 0.62 | Dct ([4]; mean, n 11): 16.5 | 18S ([4]; individual animal, 20 mg/kg): 12.55 (2×) and 12.84 and 12.43 and 12.35 (2×) and 12.59 and 11.73 and 12.51 and 11.5 and 11.55 | 18S ([4]; mean, n 11): 12.3 | Hepatic MCP-1 levels reduction ([5]; 70 days, p<0.001 vs. vehicle): 70% | MCP1 ([5]; group mean, n 11): 1.7 pg/mg liver | MCP1 ([5]; individual animals): 1.34 pg/mg liver and 1.53 pg/mg liver and 0.60 pg/mg liver and 2.54 pg/mg liver and 1.76 pg/mg liver and 1.72 pg/mg liver and 1.42 pg/mg liver and 1.21 pg/mg liver and 1.78 pg/mg liver and 1.90 pg/mg liver and 2.59 pg/mg liver
